We go through eight molecules from article PMC12121777 (PLOS One, 2025).

Test [1] concerns Mtb Praha 1. Kind of test: microbe, parasite or virus in culture. Particulars: Mycobacterium tuberculosis, read-out: MIC Mtb Praha 1. It is filed as cell-based.
The subject of test [2] is Mtb Praha 4. Put plainly: microbe, parasite or virus in culture. Particulars: Mycobacterium tuberculosis, read-out: MIC Mtb Praha 4. It is filed as cell-based.
Test [3] has as its system Mtb Praha 131. Kind of test: microbe, parasite or virus in culture. It is filed as cell-based. Particulars: Mycobacterium tuberculosis, read-out: MIC Mtb Praha 131.
The subject of test [4] is Mtb 234/2005. Put plainly: microbe, parasite or virus in culture. Particulars: Mycobacterium tuberculosis, read-out: MIC Mtb 234/2005. It is filed as cell-based.
The subject of test [5] is Mtb 9449/2007. Put plainly: microbe, parasite or virus in culture. It is filed as cell-based. Particulars: Mycobacterium tuberculosis, read-out: MIC Mtb 9449/2007.
Test [6] concerns Mtb 7357/1998. Kind of test: microbe, parasite or virus in culture. It is filed as cell-based. Conditions: Mycobacterium tuberculosis, read-out: MIC Mtb 7357/1998.
Test [7] deals with Mtb 8666/2010. Put plainly: microbe, parasite or virus in culture. Particulars: Mycobacterium tuberculosis, read-out: MIC Mtb 8666/2010. It is filed as cell-based.
The test system of test [8] is polyresistant Mtb strains. Conditions: polyresistant Mtb strains (e.g., INH, STR, EMB); cited from earlier work.

SMILES strings stand for the structures. Values after ≈ are worked out from the molar mass of the structure shown. Where two headings read alike, the source gives them in different places.

Consider `CCCCCCCCCCCCNc1nnc(-c2cc([N+](=O)[O-])cc([N+](=O)[O-])c2)o1` [Compound 5l, 5-(3,5-Dinitrophenyl)-N-dodecyl-1,3,4-oxadiazol-2-amine], for which the MIC amounted to 0.25 µM (≈ 0.105 µg/mL) in test [1] (PRAHA1, 336 h); 0.5 µM (≈ 0.21 µg/mL) in test [1] (PRAHA1, 504 h); 0.25 µM (≈ 0.105 µg/mL) in test [2] (PRAHA4, 336 h); 0.5 µM (≈ 0.21 µg/mL) in test [2] (PRAHA4, 504 h); 0.25 µM (≈ 0.105 µg/mL) in test [3] (PRAHA131, 336 h); 0.5 µM (≈ 0.21 µg/mL) in test [3] (PRAHA131, 504 h). The MIC was 0.25 µM (≈ 0.105 µg/mL) in test [4] (234/2005, 336 h); 0.5 µM (≈ 0.21 µg/mL) in test [4] (234/2005, 504 h); 0.25 µM (≈ 0.105 µg/mL) in test [5] (9449/2007, 336 h); 0.5 µM (≈ 0.21 µg/mL) in test [5] (9449/2007, 504 h); 0.5 µM (≈ 0.21 µg/mL) in test [6] (7357/1998, 336 h); 0.5 µM (≈ 0.21 µg/mL) in test [6] (7357/1998, 504 h). Besides, the MIC in test [7] (8666/2010, 336 h) turned out to be 0.25 µM (≈ 0.105 µg/mL); in test [7] (8666/2010, 504 h) it was 0.5 µM (≈ 0.21 µg/mL).
In the case of `CCCCCCCCCCCCCNc1nnc(-c2cc([N+](=O)[O-])cc([N+](=O)[O-])c2)o1` [Compound 5m, 5-(3,5-Dinitrophenyl)-N-tridecyl-1,3,4-oxadiazol-2-amine], the MIC in test [1] (PRAHA1, 336 h) came out at 0.125 µM (≈ 0.0542 µg/mL); in test [1] (PRAHA1, 504 h) it was 0.125 µM (≈ 0.0542 µg/mL); in test [2] (PRAHA4, 336 h) it was 0.06 µM (≈ 0.026 µg/mL); in test [2] (PRAHA4, 504 h), 0.125 µM (≈ 0.0542 µg/mL); in test [3] (PRAHA131, 336 h), 0.125 µM (≈ 0.0542 µg/mL); in test [3] (PRAHA131, 504 h), 0.125 µM (≈ 0.0542 µg/mL). The MIC in test [4] (234/2005, 336 h) turned out to be 0.125 µM (≈ 0.0542 µg/mL); in test [4] (234/2005, 504 h), 0.125 µM (≈ 0.0542 µg/mL); in test [5] (9449/2007, 336 h) it was 0.06 µM (≈ 0.026 µg/mL); in test [5] (9449/2007, 504 h), 0.125 µM (≈ 0.0542 µg/mL); in test [6] (7357/1998, 336 h), 0.25 µM (≈ 0.108 µg/mL); in test [6] (7357/1998, 504 h), 0.25 µM (≈ 0.108 µg/mL). The MIC was found to be 0.06 µM (≈ 0.026 µg/mL) in test [7] (8666/2010, 336 h) and 0.125 µM (≈ 0.0542 µg/mL) in test [7] (8666/2010, 504 h).
Take `CCCCCCCCCCCCNc1nnc(-c2cc([N+](=O)[O-])cc([N+](=O)[O-])c2)s1` [Compound 5s, 5-(3,5-Dinitrophenyl)-N-dodecyl-1,3,4-thiadiazol-2-amine]: the MIC worked out at 1 µM (≈ 0.436 µg/mL) in test [1] (PRAHA1, 336 h); 1 µM (≈ 0.436 µg/mL) in test [1] (PRAHA1, 504 h); 1 µM (≈ 0.436 µg/mL) in test [2] (PRAHA4, 336 h); 1 µM (≈ 0.436 µg/mL) in test [2] (PRAHA4, 504 h); 1 µM (≈ 0.436 µg/mL) in test [3] (PRAHA131, 336 h); 1 µM (≈ 0.436 µg/mL) in test [3] (PRAHA131, 504 h). The MIC in test [4] (234/2005, 336 h) was 0.5 µM (≈ 0.218 µg/mL); in test [4] (234/2005, 504 h), 1 µM (≈ 0.436 µg/mL); in test [5] (9449/2007, 336 h), 1 µM (≈ 0.436 µg/mL); in test [5] (9449/2007, 504 h), 2 µM (≈ 0.871 µg/mL); in test [6] (7357/1998, 336 h) it was 0.5 µM (≈ 0.218 µg/mL); in test [6] (7357/1998, 504 h) it was 1 µM (≈ 0.436 µg/mL). Also, the MIC worked out at 0.5 µM (≈ 0.218 µg/mL) in test [7] (8666/2010, 336 h) and 1 µM (≈ 0.436 µg/mL) in test [7] (8666/2010, 504 h).
With `COc1ccc(CNc2nnc(-c3cc([N+](=O)[O-])cc([N+](=O)[O-])c3)o2)cc1` [Compound 7b, 5-(3,5-Dinitrophenyl)-N-(4-methoxybenzyl)-1,3,4-oxadiazol-2-amine], the MIC in test [1] (PRAHA1, 336 h) is no more than 0.03 µM; in test [1] (PRAHA1, 504 h) it was no more than 0.03 µM; in test [2] (PRAHA4, 336 h) it was no more than 0.03 µM; in test [2] (PRAHA4, 504 h), no more than 0.03 µM; in test [3] (PRAHA131, 336 h), no more than 0.03 µM; in test [3] (PRAHA131, 504 h), no more than 0.03 µM. In addition, the MIC in test [4] (234/2005, 336 h) is no more than 0.03 µM; in test [4] (234/2005, 504 h), 0.06 µM (≈ 0.0223 µg/mL); in test [5] (9449/2007, 336 h), no more than 0.03 µM; in test [5] (9449/2007, 504 h) it was no more than 0.03 µM; in test [6] (7357/1998, 336 h), no more than 0.03 µM; in test [6] (7357/1998, 504 h) it was no more than 0.03 µM. Moreover, the MIC in test [7] (8666/2010, 336 h) was no more than 0.03 µM; in test [7] (8666/2010, 504 h) it was no more than 0.03 µM.
For the molecule `O=[N+]([O-])c1cc(-c2nnc(NCc3ccc(Cl)cc3Cl)o2)cc([N+](=O)[O-])c1` [Compound 7d, N-(2,4-Dichlorobenzyl)-5-(3,5-dinitrophenyl)-1,3,4-oxadiazol-2-amine], the MIC was found to be 0.125 µM (≈ 0.0513 µg/mL) in test [1] (PRAHA1, 336 h); 0.125 µM (≈ 0.0513 µg/mL) in test [1] (PRAHA1, 504 h); 0.06 µM (≈ 0.0246 µg/mL) in test [2] (PRAHA4, 336 h); 0.125 µM (≈ 0.0513 µg/mL) in test [2] (PRAHA4, 504 h); 0.125 µM (≈ 0.0513 µg/mL) in test [3] (PRAHA131, 336 h); 0.125 µM (≈ 0.0513 µg/mL) in test [3] (PRAHA131, 504 h). Moreover, the MIC in test [4] (234/2005, 336 h) stood at 0.06 µM (≈ 0.0246 µg/mL); in test [4] (234/2005, 504 h) it was 0.125 µM (≈ 0.0513 µg/mL); in test [5] (9449/2007, 336 h) it was 0.06 µM (≈ 0.0246 µg/mL); in test [5] (9449/2007, 504 h) it was 0.125 µM (≈ 0.0513 µg/mL); in test [6] (7357/1998, 336 h), 0.125 µM (≈ 0.0513 µg/mL); in test [6] (7357/1998, 504 h), 0.125 µM (≈ 0.0513 µg/mL). Moreover, the MIC in test [7] (8666/2010, 336 h) was found to be 0.06 µM (≈ 0.0246 µg/mL); in test [7] (8666/2010, 504 h), 0.125 µM (≈ 0.0513 µg/mL).
`COc1ccc(CNc2nnc(-c3cc([N+](=O)[O-])cc([N+](=O)[O-])c3)s2)cc1` [Compound 8b, 5-(3,5-Dinitrophenyl)-N-(4-methoxybenzyl)-1,3,4-thiadiazol-2-amine]: the MIC is no more than 0.03 µM in test [1] (PRAHA1, 336 h); no more than 0.03 µM in test [1] (PRAHA1, 504 h); no more than 0.03 µM in test [2] (PRAHA4, 336 h); no more than 0.03 µM in test [2] (PRAHA4, 504 h); no more than 0.03 µM in test [3] (PRAHA131, 336 h); no more than 0.03 µM in test [3] (PRAHA131, 504 h). The MIC in test [4] (234/2005, 336 h) is no more than 0.03 µM; in test [4] (234/2005, 504 h) it was no more than 0.03 µM; in test [5] (9449/2007, 336 h), no more than 0.03 µM; in test [5] (9449/2007, 504 h) it was no more than 0.03 µM; in test [6] (7357/1998, 336 h), no more than 0.03 µM; in test [6] (7357/1998, 504 h) it was no more than 0.03 µM. Further, the MIC in test [7] (8666/2010, 336 h) was no more than 0.03 µM; in test [7] (8666/2010, 504 h), no more than 0.03 µM.
In the case of `CCCCCCCCCCCCCCCCCc1nnc(-c2ccncc2)o1` [III], the “inhibitory concentration (MIC)” value in test [8] is no less than 2.59 µM.
In the case of `CCCCCCCCCCCCCCCc1nnc(-c2ccncc2)o1` [II], in test [8], the “inhibitory concentration (MIC)” value was no less than 2.59 µM.
